ChEMBL document CHEMBL3797035 (Bioorg Med Chem, 2016)

How the values were obtained:
[1] = target: T1, D(2) dopamine receptor (Homo sapiens, UniProt P14416); assay: Displacement of [3H]spiperone from human D2S receptor expressed in CHO cells; type: cell-based
[2] = target: T2, Beta-2 adrenergic receptor (Homo sapiens, UniProt P07550); assay: Displacement of [3H]CGP12177 from human beta2 receptor expressed in CHO cells; type: cell-based
[3] = target: T2, Beta-2 adrenergic receptor; assay: Agonist activity at human beta2 receptor expressed in HEK293 cells cotransfected with Gqs5 protein assessed as [3H]IP3 accumulation after 120 mins by scintillation counting assay in presence of myo-[3H]-inositol; type: functional, cell-based
[4] = Displacement of [3H]RX821002 from alpha-2 receptor in porcine cortical membranes; type: cell membranes, Sus scrofa
[5] = target: D(3) dopamine receptor (Homo sapiens, UniProt P35462); assay: Displacement of [3H]spiperone from human D3 receptor expressed in CHO cells; type: cell-based
Chain of D(3) dopamine receptor (P35462 whole entry): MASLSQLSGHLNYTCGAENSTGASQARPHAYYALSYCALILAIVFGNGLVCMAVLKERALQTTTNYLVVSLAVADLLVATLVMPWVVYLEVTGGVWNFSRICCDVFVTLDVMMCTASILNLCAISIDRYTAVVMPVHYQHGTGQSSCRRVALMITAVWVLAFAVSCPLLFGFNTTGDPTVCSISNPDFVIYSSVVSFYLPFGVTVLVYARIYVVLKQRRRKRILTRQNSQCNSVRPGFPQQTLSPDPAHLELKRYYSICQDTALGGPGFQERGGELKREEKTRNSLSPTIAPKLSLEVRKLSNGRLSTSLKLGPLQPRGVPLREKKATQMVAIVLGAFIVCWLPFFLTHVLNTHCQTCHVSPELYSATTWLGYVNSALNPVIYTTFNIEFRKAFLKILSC

[6] = Displacement of [3H]prazosine from alpha-1 receptor in porcine cortical membranes; type: cell membranes, Sus scrofa
[7] = target: Beta-1 adrenergic receptor (Mus musculus, UniProt P34971); assay: Displacement of [3H]CGP12177 from mouse beta1 receptor expressed in HEK293 cells; type: cell-based
Chain of Beta-1 adrenergic receptor (P34971 whole entry): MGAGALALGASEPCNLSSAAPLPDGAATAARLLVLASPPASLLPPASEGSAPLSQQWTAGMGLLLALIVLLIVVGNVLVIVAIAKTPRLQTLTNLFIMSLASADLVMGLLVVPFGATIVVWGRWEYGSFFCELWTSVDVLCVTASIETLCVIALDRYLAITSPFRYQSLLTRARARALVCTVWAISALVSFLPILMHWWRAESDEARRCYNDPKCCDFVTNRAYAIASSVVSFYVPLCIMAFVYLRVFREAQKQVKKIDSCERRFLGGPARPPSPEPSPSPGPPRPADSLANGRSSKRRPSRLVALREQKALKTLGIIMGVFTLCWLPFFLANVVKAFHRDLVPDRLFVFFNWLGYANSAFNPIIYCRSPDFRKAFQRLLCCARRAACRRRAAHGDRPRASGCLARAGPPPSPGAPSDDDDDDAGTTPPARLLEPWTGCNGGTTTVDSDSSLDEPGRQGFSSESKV

[8] = target: T1, D(2) dopamine receptor; assay: Displacement of [3H]spiperone from human D2L receptor expressed in CHO cells; type: cell-based
[9] = target: T2, Beta-2 adrenergic receptor; assay: Agonist activity at PK-tagged beta2 receptor (unknown origin) transfected in HEK293 cells after 90 mins by beta-arrestin assay; type: cell-based
[10] = target: D(1A) dopamine receptor (Homo sapiens, UniProt P21728); assay: Displacement of [3H]SCH23390 from human D1 receptor expressed in HEK293 cells; type: cell-based
Chain of D(1A) dopamine receptor (P21728 whole entry): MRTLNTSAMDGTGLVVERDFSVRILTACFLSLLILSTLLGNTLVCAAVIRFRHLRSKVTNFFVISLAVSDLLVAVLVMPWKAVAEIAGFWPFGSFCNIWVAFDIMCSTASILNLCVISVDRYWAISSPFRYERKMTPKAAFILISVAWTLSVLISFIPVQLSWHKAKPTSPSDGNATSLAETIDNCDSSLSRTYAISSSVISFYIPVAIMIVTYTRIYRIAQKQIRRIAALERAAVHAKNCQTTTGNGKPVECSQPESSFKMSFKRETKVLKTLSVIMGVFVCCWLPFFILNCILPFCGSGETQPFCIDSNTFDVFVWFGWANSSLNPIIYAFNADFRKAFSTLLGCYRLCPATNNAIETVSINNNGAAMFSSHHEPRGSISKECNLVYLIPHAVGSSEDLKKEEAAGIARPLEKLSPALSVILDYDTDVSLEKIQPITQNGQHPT

[11] = target: T3, D(4) dopamine receptor (Homo sapiens, UniProt P21917); assay: Displacement of [3H]spiperone from human D4.4 receptor expressed in CHO cells; type: cell-based
T3 sequence (P21917 whole entry): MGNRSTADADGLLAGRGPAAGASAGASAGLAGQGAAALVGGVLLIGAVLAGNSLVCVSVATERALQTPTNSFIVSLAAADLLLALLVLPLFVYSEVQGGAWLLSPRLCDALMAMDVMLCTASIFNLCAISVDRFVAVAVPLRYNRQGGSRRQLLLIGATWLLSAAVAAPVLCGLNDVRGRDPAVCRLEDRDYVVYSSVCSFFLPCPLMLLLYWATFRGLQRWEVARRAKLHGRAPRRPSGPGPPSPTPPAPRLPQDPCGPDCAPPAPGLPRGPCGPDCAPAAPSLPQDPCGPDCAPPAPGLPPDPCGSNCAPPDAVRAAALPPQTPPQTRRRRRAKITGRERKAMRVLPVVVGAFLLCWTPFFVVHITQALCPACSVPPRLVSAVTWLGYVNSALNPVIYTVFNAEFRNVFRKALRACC

[12] = target: T1, D(2) dopamine receptor; assay: Agonist activity at human D2S receptor expressed in HEK293 cells cotransfected with Gqi5 protein assessed as [3H]IP3 accumulation after 120 mins by scintillation counting assay in presence of myo-[3H]-inositol; type: functional, cell-based
[13] = target: T1, D(2) dopamine receptor; assay: Agonist activity at ARMS2-PK-tagged D2S receptor (unknown origin) transfected in HEK293 cells after 5 hrs by beta-arrestin assay; type: cell-based
[14] = species: Homo sapiens; assay: Selectivity index, ratio of Ki for human D2S receptor to Ki for human beta2 receptor

T2 sequence (P07550 whole entry): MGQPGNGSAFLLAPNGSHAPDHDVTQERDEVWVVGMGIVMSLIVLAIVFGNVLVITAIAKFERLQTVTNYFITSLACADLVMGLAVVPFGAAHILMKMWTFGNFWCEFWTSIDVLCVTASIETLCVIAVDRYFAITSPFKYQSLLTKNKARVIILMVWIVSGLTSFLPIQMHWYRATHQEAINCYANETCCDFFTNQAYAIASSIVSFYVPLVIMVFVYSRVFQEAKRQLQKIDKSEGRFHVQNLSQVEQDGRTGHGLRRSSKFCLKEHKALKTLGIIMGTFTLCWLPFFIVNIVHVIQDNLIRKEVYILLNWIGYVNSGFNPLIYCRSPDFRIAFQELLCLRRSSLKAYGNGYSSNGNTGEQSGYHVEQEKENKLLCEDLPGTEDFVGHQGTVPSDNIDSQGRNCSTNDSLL
T1 sequence (P14416 whole entry): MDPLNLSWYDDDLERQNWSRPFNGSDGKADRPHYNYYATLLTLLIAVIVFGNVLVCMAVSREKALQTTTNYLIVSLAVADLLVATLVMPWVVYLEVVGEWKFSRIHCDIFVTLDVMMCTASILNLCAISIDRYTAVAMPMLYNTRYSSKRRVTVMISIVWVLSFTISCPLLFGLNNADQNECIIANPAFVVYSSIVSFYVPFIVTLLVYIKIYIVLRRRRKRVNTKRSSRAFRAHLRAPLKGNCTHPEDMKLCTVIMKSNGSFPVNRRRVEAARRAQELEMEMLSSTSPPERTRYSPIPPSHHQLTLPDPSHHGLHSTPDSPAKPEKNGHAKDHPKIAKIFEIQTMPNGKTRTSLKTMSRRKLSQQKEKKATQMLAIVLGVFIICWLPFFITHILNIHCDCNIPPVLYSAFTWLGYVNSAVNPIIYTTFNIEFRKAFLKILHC

| SMILES | Ki [1] | Ki [2] | EC50 [3] | Ki [4] | Ki [5] | Ki [6] | Ki [7] | Ki [8] | EC50 [9] | Ki [10] | Ki [11] | EC50 [12] | EC50 [13] | Ratio Ki [14] |
| --- | --- | --- | --- | --- | --- | --- | --- | --- | --- | --- | --- | --- | --- | --- |
| OCc1cc(C(O)CNCCCCCCOCCCCc2ccccc2)ccc1O (centres undefined) [SALMETEROL] | 32000 nM |  |  |  |  |  |  |  |  |  |  |  |  |  |
| COc1ccccc1OCCNC[C@@H](O)c1ccc(O)c(O)c1 | 200 nM | 850 nM | 1400 nM | 760 nM | 610 nM | 19 nM | 1500 nM | 350 nM | 2200 nM | 430 nM | 240 nM |  |  |  |
| CCCN1CCC[C@@H]2Cc3n[nH]cc3C[C@H]21 [QUINPIROLE] |  | 100000 nM |  |  |  |  |  |  |  |  |  |  |  |  |
| COc1cc(CCNC[C@H](O)c2ccc(O)c3[nH]c(=O)ccc23)ccc1OCCCc1ccccc1 | 3200 nM | 0.48 nM | 6.2 nM |  | 1700 nM | 1400 nM | 5.8 nM | 5700 nM | 22 nM | 11000 nM | 3300 nM |  |  |  |
| COc1cc(CCNC[C@H](O)c2ccc(O)c(O)c2)ccc1OCCCc1ccccc1 | 67 nM | 18 nM | 5100 nM | 1200 nM | 62 nM | 16 nM | 85 nM | 110 nM | 260 nM | 430 nM | 140 nM | 200 nM |  |  |
| COc1cc(CCNC[C@@H](O)c2ccc(O)c3[nH]c(=O)ccc23)ccc1OCCCc1ccccc1 | 2300 nM | 23 nM | 840 nM |  | 790 nM | 1800 nM | 300 nM | 2900 nM | 510 nM | 6800 nM | 9200 nM |  |  |  |
| COc1cc(CCNCCc2ccc(O)c(O)c2)ccc1OCCCc1ccccc1 | 120 nM | 53 nM | 47000 nM | 810 nM | 12 nM | 400 nM | 2300 nM | 63 nM |  | 860 nM | 38 nM | 110 nM | 2600 nM |  |
| CC(C)NCC(O)c1ccc(O)c(O)c1 (centres undefined) [ISOPROTERENOL] | 12000 nM |  |  | 5700 nM | 4700 nM | 78000 nM |  | 48000 nM |  | > 50000 nM | 2900 nM |  |  |  |
| CCCN(CCC)[C@H]1CCc2c(O)cccc2C1 |  | 40000 nM |  |  |  |  |  |  |  |  |  |  |  |  |
| CCCN[C@H]1CCc2nc(N)sc2C1 [PRAMIPEXOLE] |  | 100000 nM |  |  |  |  |  |  |  |  |  |  |  |  |
| COc1cc(CCNC[C@@H](O)c2ccc(O)c3c2OCC(=O)N3)ccc1OCCCc1ccccc1 | 96 nM | 13 nM | 1000 nM | 2200 nM | 400 nM | 1100 nM | 180 nM | 310 nM | 580 nM | 2800 nM | 5400 nM | 7.3 nM | 8800 nM |  |
| COc1ccccc1OCCNC[C@H](O)c1ccc(O)c(O)c1 | 430 nM | 97 nM | 120 nM | 420 nM | 2200 nM | 50 nM | 160 nM | 640 nM | 210 nM | 890 nM | 300 nM | 170 nM |  |  |
| COc1ccccc1OCCNC[C@@H](O)COc1cccc2[nH]c3ccccc3c12 [(R)-Carvedilol] | 26 nM |  |  |  |  |  |  |  |  |  |  |  |  |  |
| CNC[C@H](O)c1ccc(O)c(O)c1 [EPINEPHRINE] | 910 nM |  |  |  |  |  |  |  |  |  |  |  |  |  |
| COc1ccccc1OCCNCCc1ccc(O)c(O)c1 | 48 nM | 610 nM | 720 nM | 390 nM | 25 nM | 4.7 nM | 5000 nM | 85 nM |  | 210 nM | 4.5 nM | 25 nM |  |  |
| COc1cc(CCNC[C@H](O)c2ccc(O)c3c2OCC(=O)N3)ccc1OCCCc1ccccc1 | 65 nM | 0.25 nM | 7 nM | 4700 nM | 690 nM | 1900 nM | 5.1 nM | 130 nM | 13 nM | 4500 nM | 1400 nM | 98 nM | 13000 nM |  |
| CCCN(CCC)[C@@H]1CCc2ccc(O)cc2C1 |  | 86000 nM |  |  |  |  |  |  |  |  |  |  |  |  |
| COc1cc(CCNCCc2ccc(O)c3[nH]c(=O)ccc23)ccc1OCCCc1ccccc1 | 160 nM | 6.3 nM |  | 13000 nM | 18 nM | 920 nM | 150 nM | 64 nM |  | 2800 nM | 900 nM | 17 nM | 240 nM |  |
| COc1cc(CCNCCc2ccc(O)c3c2OCC(=O)N3)ccc1OCCCc1ccccc1 | 17 nM | 2.8 nM |  | 270 nM | 3.5 nM | 120 nM | 79 nM | 12 nM |  | 960 nM | 55 nM | 2.6 nM | 1100 nM |  |
| CCC(NC(C)C)C(O)c1ccc(O)c2[nH]c(=O)ccc12 (centres undefined) [PROCATEROL] | 86000 nM | 33 nM |  |  |  |  |  |  |  |  |  |  |  | 2600 |
| NC[C@H](O)c1ccc(O)c(O)c1 [NOREPINEPHRINE] | 1300 nM |  |  |  |  |  |  |  |  |  |  |  |  |  |
| COc1cc(CCNC[C@@H](O)c2ccc(O)c(O)c2)ccc1OCCCc1ccccc1 | 1700 nM | 47 nM | 2600 nM | 2500 nM | 660 nM |  | 530 nM | 1900 nM | 650 nM | 2900 nM | 1000 nM |  |  |  |
